Biological target: T1, human mGlu5a receptor (Homo sapiens, UniProt P41594)
T1 construct: expressed in transfected cells
Assay: Intracellular Ca2+ mobilization assay (mGlu5 PAM)
Assay type: cell-based
Details: for Emax: HEK293, maximal response in % of the maximal stimulatory effect obtained with saturating concentrations of L-glutamate, read-out: Eff. (%); for EC50: HEK-293 cells stably transfected with human mGlu5a receptor, L-glutamate added at EC20 (typically around 80 μM) after 10-30 min pre-incubation with test compound, read-out: EC50 (nM) mGlu5PAM
Description: A monoclonal HEK-293 cell line stably transfected with a cDNA encoding for the human mGlu5a receptor was generated; for the work with mGlu5 Positive Allosteric Modulators (PAMs), a cell line with low receptor expression levels and low constitutive receptor activity was selected to allow the differentiation of agonistic versus PAM activity. Cells were cultured according to standard protocols (Freshney, 2000) in Dulbecco's Modified Eagle Medium with high glucose supplemented with 1 mM glutamine, 10% (vol/vol) heat-inactivated bovine calf serum, Penicillin/Streptomycin, 50 μg/ml hygromycin and 15 μg/ml blasticidin (all cell culture reagents and antibiotics from Invitrogen, Basel, Switzerland).
About 24 hrs before an experiment, 5×10^4 cells/well were seeded in poly-D-lysine coated, black/clear-bottomed 96-well plates. The cells were loaded with 2.5 μM Fluo-4AM in loading buffer (1×HBSS, 20 mM HEPES) for 1 hr at 37° C. and washed five times with loading buffer. The cells were transferred into a Functional Drug Screening System 7000 (Hamamatsu, Paris, France), and 11 half logarithmic serial dilutions of test compound at 37° C. were added and the cells were incubated for 10-30 min with on-line recording of fluorescence. Following this pre-incubation step, the agonist L-glutamate was added to the cells at a concentration corresponding to EC20 (typically around 80 μM) with on-line recording of fluorescence; in order to account for day-to-day variations in the responsiveness of cells, the EC20 of glutamate was determined immediately ahead of each experiment by recording of a full dose-response curve of glutamate.
Responses were measured as peak increase in fluorescence minus basal (i.e. fluorescence without addition of L-glutamate), normalized to the maximal stimulatory effect obtained with saturating concentrations of L-glutamate. Graphs were plotted with the % maximal stimulatory using XLfit, a curve fitting program that iteratively plots the data using Levenburg Marquardt algorithm. The single site competition analysis equation used was y=A+((B−A)/(1+((x/C)D))), where y is the % maximal stimulatory effect, A is the minimum y, B is the maximum y, C is the EC50, x is the log 10 of the concentration of the competing compound and D is the slope of the curve (the Hill Coefficient). From these curves the EC50 (concentration at which half maximal stimulation was achieved), the Hill coefficient as well as the maximal response in % of the maximal stimulatory effect obtained with saturating concentrations of L-glutamate were calculated.
A depression of the signal observed after addition of the EC20 concentration of L-glutamate was indicative of an inhibitory activity of the test compound.

T1 sequence (P41594 21-1180 isoform P41594-2 limits assumed): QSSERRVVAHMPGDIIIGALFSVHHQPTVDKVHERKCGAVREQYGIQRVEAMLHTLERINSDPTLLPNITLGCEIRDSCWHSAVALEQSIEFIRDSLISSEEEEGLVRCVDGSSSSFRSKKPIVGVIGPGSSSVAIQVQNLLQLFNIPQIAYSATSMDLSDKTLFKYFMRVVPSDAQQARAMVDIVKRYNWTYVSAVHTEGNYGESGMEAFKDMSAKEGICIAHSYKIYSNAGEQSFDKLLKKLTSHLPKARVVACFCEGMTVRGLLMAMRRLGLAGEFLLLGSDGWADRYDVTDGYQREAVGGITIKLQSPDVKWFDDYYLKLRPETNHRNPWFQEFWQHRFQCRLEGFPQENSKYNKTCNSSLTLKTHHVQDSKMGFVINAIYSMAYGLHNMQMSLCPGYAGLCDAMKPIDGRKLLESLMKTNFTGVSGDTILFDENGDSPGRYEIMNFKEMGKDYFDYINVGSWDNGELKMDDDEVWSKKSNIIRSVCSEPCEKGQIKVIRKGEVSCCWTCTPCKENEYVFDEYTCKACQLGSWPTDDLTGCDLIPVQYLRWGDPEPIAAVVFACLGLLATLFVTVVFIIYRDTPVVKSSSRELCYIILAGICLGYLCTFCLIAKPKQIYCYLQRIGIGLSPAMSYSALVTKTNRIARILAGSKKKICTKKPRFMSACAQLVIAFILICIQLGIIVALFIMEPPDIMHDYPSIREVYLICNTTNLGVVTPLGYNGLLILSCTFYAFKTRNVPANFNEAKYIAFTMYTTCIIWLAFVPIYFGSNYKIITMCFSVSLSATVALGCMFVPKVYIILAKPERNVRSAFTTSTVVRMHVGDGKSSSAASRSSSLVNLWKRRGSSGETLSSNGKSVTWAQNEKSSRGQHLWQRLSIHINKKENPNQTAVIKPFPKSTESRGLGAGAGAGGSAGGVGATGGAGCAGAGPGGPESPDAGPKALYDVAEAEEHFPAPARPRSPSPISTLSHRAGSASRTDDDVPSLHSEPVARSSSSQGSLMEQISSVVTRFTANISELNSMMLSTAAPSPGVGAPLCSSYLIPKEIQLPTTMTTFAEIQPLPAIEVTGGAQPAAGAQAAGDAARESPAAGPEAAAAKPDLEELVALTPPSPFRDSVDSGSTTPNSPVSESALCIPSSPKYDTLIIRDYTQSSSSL

| SMILES | Emax (HEK-293 human mGlu5a cells) | EC50 | Eff. (%) (maximal response in % of the maximal stimulatory effect obtained with saturating concentrations of L-glutamate, HEK-293 human mGlu5a cells) |
| --- | --- | --- | --- |
| CC1(C)CC(O)CCN1C(=O)c1ccc(C#Cc2ccccc2)cn1 (racemic) [Example 38, (RS)-(4-Hydroxy-2,2-dimethyl-piperidin-1-yl)-(5-phenylethynyl-pyridin-2-yl)-methanone] | 57% | 28 nM |  |
| CC1(C)CN(C(=O)c2ccc(C#Cc3ccccc3)cn2)CCC1O (racemic) [Example 39, (RS)-(4-Hydroxy-3,3-dimethyl-piperidin-1-yl)-(5-phenylethynyl-pyridin-2-yl)-methanone] | 58% | 35 nM |  |
| CC1(C)CN(C(=O)c2ccc(C#Cc3ccc(F)cc3)cn2)CCC1O (racemic) [Example 40, (RS)-[5-(4-Fluoro-phenylethynyl)-pyridin-2-yl]-(4-hydroxy-3,3-dimethyl-piperidin-1-yl)-methanone] | 37% | 93 nM |  |
| CC1(C)CN(C(=O)c2ccc(C#Cc3cccc(F)c3)cn2)CCC1O (racemic) [Example 41, (RS)-[5-(3-Fluoro-phenylethynyl)-pyridin-2-yl]-(4-hydroxy-3,3-dimethyl-piperidin-1-yl)-methanone] | 45% | 72 nM |  |
| CC1(C)CC(O)CCN1C(=O)c1ncc(C#Cc2ccccc2)cn1 (racemic) [Example 47, (RS)-(4-Hydroxy-2,2-dimethyl-piperidin-1-yl)-(5-phenylethynyl-pyrimidin-2-yl)-methanone] | 57% | 66 nM |  |
| CC1(C)CN(C(=O)c2ncc(C#Cc3ccccc3)cn2)CCC1O (racemic) [Example 48, (RS)-(4-Hydroxy-3,3-dimethyl-piperidin-1-yl)-(5-phenylethynyl-pyrimidin-2-yl)-methanone] | 55% | 49 nM |  |
| CC1(C)CN(C(=O)c2ncc(C#Cc3cccc(F)c3)cn2)CCC1O (racemic) [Example 49, (RS)-[5-(3-Fluoro-phenylethynyl)-pyrimidin-2-yl]-(4-hydroxy-3,3-dimethyl-piperidin-1-yl)-methanone] | 48% | 98 nM |  |
| CC(N(C)C(=O)c1ncc(C#Cc2ccccc2)cc1F)C(F)(F)F (racemic) [Example 51, (RS)-3-Fluoro-5-phenylethynyl-pyridine-2-carboxylic Acid methyl-(2,2,2-trifluoro-1-methyl-ethyl)-amide] | 69% | 66 nM |  |
| CC(NC(=O)c1ccc(C#Cc2ccnc(Cl)c2)cn1)C(F)(F)F (racemic) [Example 57, (RS)-5-(2-Chloro-pyridin-4-ylethynyl)-pyridine-2-carboxylic Acid (2,2,2-trifluoro-1-methyl-ethyl)-amide] | 42% | 22 nM |  |
| CC(NC(=O)c1ccc(C#Cc2cccc(Cl)c2)cn1)C(F)(F)F (racemic) [Example 61, (RS)-5-(3-Chloro-phenylethynyl)-pyridine-2-carboxylic Acid (2,2,2-trifluoro-1-methyl-ethyl)-amide] | 83% | 61 nM |  |
| CC(N(C)C(=O)c1ccc(C#Cc2cccc(Cl)c2)cn1)C(F)(F)F (racemic) [Example 62, (RS)-5-(3-Chloro-phenylethynyl)-pyridine-2-carboxylic acid methyl-(2,2,2-trifluoro-1-methyl-ethyl)-amide] | 35% | 25 nM |  |
| CC1(C)CC(O)CCN1C(=O)c1ccc(C#Cc2cccc(F)c2)cn1 (racemic) [Example 63, (RS)-[5-(3-Fluoro-phenylethynyl)-pyridin-2-yl]-(4-hydroxy-2,2-dimethyl-piperidin-1-yl)-methanone] | 45% | 40 nM |  |
| CC1(C)CC(O)CCN1C(=O)c1ccc(C#Cc2cc(F)ccc2F)cn1 (racemic) [Example 64, (RS)-[5-(2,5-Difluoro-phenylethynyl)-pyridin-2-yl]-(4-hydroxy-2,2-dimethyl-piperidin-1-yl)-methanone] | 42% | 34 nM |  |
| CC1(C)CC(O)CCN1C(=O)c1ncc(C#Cc2cccc(F)c2)cn1 (racemic) [Example 65, (RS)-[5-(3-Fluoro-phenylethynyl)-pyrimidin-2-yl]-(4-hydroxy-2,2-dimethyl-piperidin-1-yl)-methanone] | 55% | 149 nM |  |
| CC1(C)CC(O)CCN1C(=O)c1ncc(C#Cc2cc(F)ccc2F)cn1 (racemic) [Example 66, (RS)-[5-(2,5-Difluoro-phenylethynyl)-pyrimidin-2-yl]-(4-hydroxy-2,2-dimethyl-piperidin-1-yl)-methanone] | 49% | 101 nM |  |
| CC1(C)CC(O)CCN1C(=O)c1ncc(C#Cc2cccc(F)c2)cc1F (racemic) [Example 67, (RS)-[3-Fluoro-5-(3-fluoro-phenylethynyl)-pyridin-2-yl]-(4-hydroxy-2,2-dimethyl-piperidin-1-yl)-methanone] | 57% | 54 nM |  |
| CC1(C)CC(O)CCN1C(=O)c1ncc(C#Cc2cc(F)ccc2F)cc1F (racemic) [Example 68, (RS)-[5-(2,5-Difluoro-phenylethynyl)-3-fluoro-pyridin-2-yl]-(4-hydroxy-2,2-dimethyl-piperidin-1-yl)-methanone] | 54% | 46 nM |  |
| CC(NC(=O)c1ccc(C#Cc2ccnc(Cl)c2)cn1)C(F)(F)F (single isomer, unassigned) [Example 59, (R) or (S)-5-(2-Chloro-pyridin-4-ylethynyl)-pyridine-2-carboxylic Acid (2,2,2-trifluoro-1-methyl-ethyl)-amide] | 47% | 27 nM |  |
| CC(NC(=O)c1ccc(C#Cc2ccnc(Cl)c2)cn1)C(F)(F)F (single isomer, unassigned) [Example 60, (S) or (R)-5-(2-Chloro-pyridin-4-ylethynyl)-pyridine-2-carboxylic Acid (2,2,2-trifluoro-1-methyl-ethyl)-amide] |  | 69 nM | 60% |
| CC(C)(C)NC(=O)c1ccc(C#Cc2ccccc2)cn1 [Example 1, 5-Phenylethynyl-pyridine-2-carboxylic Acid tert-butylamide] | 115% | 49 nM |  |
| CN(C(=O)c1ccc(C#Cc2ccccc2)cn1)C(C)(C)C [Example 2, 5-Phenylethynyl-pyridine-2-carboxylic Acid tert-butyl-methyl-amide] | 87% | 19 nM |  |
| CN(C(=O)c1ccc(C#Cc2cccc(F)c2)cn1)C(C)(C)C [Example 3, 5-(3-Fluoro-phenylethynyl)-pyridine-2-carboxylic Acid tert-butyl-methyl-amide] | 64% | 16 nM |  |
| CN(C(=O)c1ccc(C#Cc2ccc(F)cc2)cn1)C(C)(C)C [Example 4, 5-(4-Fluoro-phenylethynyl)-pyridine-2-carboxylic Acid tert-butyl-methyl-amide] | 83% | 18 nM |  |
| CN(C(=O)c1ccc(C#Cc2cc(F)ccc2F)cn1)C(C)(C)C [Example 5, 5-(2,5-Difluoro-phenylethynyl)-pyridine-2-carboxylic Acid tert-butyl-methyl-amide] | 42% | 12 nM |  |
| CN(C(=O)c1ccc(C#Cc2cccnc2)cn1)C(C)(C)C [Example 6, 5-Pyridin-3-ylethynyl-pyridine-2-carboxylic Acid tert-butyl-methyl-amide] | 70% | 72 nM |  |
| CN(C(=O)c1ccc(C#Cc2cncc(Cl)c2)cn1)C(C)(C)C [Example 7, 5-(5-Chloro-pyridin-3-ylethynyl)-pyridine-2-carboxylic Acid tert-butyl-methyl-amide] | 33% | 17 nM |  |
| CN(C(=O)c1ccc(C#Cc2cncc(F)c2)cn1)C(C)(C)C [Example 8, 5-(5-Fluoro-pyridin-3-ylethynyl)-pyridine-2-carboxylic Acid tert-butyl-methyl-amide] | 79% | 62 nM |  |
| CC(C)(C)NC(=O)c1ncc(C#Cc2ccc(F)cc2)cn1 [Example 9, 5-(4-Fluoro-phenylethynyl)-pyrimidine-2-carboxylic Acid tert-butylamide] | 90% | 127 nM |  |
| CC(C)(C)NC(=O)c1ncc(C#Cc2cccc(F)c2)cn1 [Example 10, 5-(3-Fluoro-phenylethynyl)-pyrimidine-2-carboxylic Acid tert-butylamide] | 81% | 36 nM |  |

Source: US8772300B2, “Phenyl or pyridinyl-ethynyl derivatives” (Hoffmann-La Roche Inc., priority 2011, dated 2014)
